Experimental data reported in ChEMBL document CHEMBL4400521, “Plasma kallikrein cleaves and inactivates apelin-17: Palmitoyl- and PEG-extended apelin-17 analogs as metabolically stable blood pressure-lowering agents” (Eur J Med Chem, 2019).
Non-standard residues stand in square brackets, D forms with d. Residues, ends and D or L forms follow the SMILES beside them. *: point of attachment. Phe(4-Br) = N[C@@H](Cc1ccc(Br)cc1)C(=O)O; Fmoc = O=C(OCC1c2ccccc2-c2ccccc21)*; PEG6 = NCCOCCOCCOCCOCCOCCOCCC(=O)O; Palmitoyl = CCCCCCCCCCCCCCCC(=O)*; NMeL = CN[C@@H](CC(C)C)C(=O)O; Nle = CCCC[C@H](N)C(=O)O; Aib = CC(C)(N)C(=O)O

Key:
Neprilysin = Neprilysin (Homo sapiens, UniProt P08473); experiment: Substrate activity at recombinant human NEP (Tyr52 to Trp750 residues) expressed in HEK293 cells assessed as enzyme-mediated degradation onset time at 1 mM by MALDI-TOF MS analysis; type: ADME, cell-based; settings: hek293, 1000 µM
Sequence of Neprilysin (P08473 whole entry): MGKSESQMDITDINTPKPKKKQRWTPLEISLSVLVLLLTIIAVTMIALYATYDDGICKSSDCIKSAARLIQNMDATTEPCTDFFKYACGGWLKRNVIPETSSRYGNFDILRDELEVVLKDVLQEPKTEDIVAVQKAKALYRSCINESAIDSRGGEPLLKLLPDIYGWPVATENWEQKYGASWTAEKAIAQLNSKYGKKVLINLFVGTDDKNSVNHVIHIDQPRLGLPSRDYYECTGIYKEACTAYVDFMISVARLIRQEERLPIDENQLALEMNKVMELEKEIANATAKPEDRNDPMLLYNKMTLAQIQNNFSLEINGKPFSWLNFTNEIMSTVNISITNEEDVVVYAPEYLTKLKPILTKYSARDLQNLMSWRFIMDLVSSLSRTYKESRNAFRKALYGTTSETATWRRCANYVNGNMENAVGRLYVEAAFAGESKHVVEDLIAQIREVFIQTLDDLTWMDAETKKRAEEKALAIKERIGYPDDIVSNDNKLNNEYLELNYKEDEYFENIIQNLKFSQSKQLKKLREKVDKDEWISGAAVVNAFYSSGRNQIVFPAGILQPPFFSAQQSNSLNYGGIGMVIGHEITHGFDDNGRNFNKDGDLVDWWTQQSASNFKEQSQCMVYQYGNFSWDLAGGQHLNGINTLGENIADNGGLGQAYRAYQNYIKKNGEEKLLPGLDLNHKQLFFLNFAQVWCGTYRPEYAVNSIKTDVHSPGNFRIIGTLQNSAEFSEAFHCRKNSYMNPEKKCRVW

Neprilysin (NEP) = Neprilysin (NEP) (Homo sapiens, UniProt P08473); experiment: Substrate activity at recombinant human NEP (Tyr52 to Trp750 residues) expressed in HEK293 cells assessed as compound half life by LC-MS analysis; type: ADME, cell-based
Sequence of Neprilysin (NEP) (P08473 whole entry): as above

Plasma kallikrein [1] = molecular target: T1, Plasma kallikrein (Homo sapiens, UniProt P03952); experiment: Substrate activity at recombinant human C-terminal His6-tagged KLKB1 (Pro19 to Ser262 residues) expressed in mammalian expression system assessed as enzyme-mediated degradation onset time at 1 mM by MALDI-TOF MS analysis; type: ADME; settings: 1000 µM
T1 sequence (P03952 20-390 limits assumed): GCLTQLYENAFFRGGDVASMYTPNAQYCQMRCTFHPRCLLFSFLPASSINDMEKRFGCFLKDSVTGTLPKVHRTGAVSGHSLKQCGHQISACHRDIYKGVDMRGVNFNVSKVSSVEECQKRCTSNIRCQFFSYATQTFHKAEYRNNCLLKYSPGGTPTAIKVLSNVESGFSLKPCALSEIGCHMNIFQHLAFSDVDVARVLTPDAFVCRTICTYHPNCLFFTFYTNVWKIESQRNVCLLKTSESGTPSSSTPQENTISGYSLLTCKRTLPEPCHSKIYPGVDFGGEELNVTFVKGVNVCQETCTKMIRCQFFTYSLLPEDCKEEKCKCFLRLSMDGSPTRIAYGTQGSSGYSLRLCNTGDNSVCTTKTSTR
T1 sequence (P03952 391-638 limits assumed): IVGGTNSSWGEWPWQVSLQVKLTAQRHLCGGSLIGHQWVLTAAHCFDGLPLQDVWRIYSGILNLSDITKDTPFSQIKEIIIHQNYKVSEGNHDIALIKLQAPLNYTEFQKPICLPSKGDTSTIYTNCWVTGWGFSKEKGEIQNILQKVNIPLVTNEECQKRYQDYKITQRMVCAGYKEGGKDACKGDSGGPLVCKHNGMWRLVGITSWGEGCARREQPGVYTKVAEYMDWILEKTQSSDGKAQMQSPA

[2] = molecular target: T2, Plasma kallikrein (KLKB1) (Homo sapiens, UniProt P03952); experiment: Substrate activity at KLKB1 in human plasma assessed as compound half life by LC-MS analysis; type: ADME, cell-free
T2 sequence (P03952 20-390 limits assumed): as the sequence (P03952 20-390 limits assumed) above
T2 sequence (P03952 391-638 limits assumed): as the sequence (P03952 391-638 limits assumed) above

[3] = molecular target: T2, Plasma kallikrein (KLKB1); experiment: (§1) Substrate activity at recombinant human C-terminal His6-tagged KLKB1 (Pro19 to Ser262 residues) expressed in mammalian expression system assessed as compound half life by LC-MS analysis; type: ADME
Mus musculus = experiment: Blood pressure lowering activity in anesthetized mouse assessed as change in mean arterial blood pressure at 1.4 uM/kg, iv; type: functional
Apelin receptor [4] = molecular target: T3, Apelin receptor (Homo sapiens, UniProt P35414); experiment: Activation of recombinant human APJ expressed in rat Chem5 cells co-expressing Galpha15 by Calcium 6-QF dye based fluorescence assay; type: functional, cell-based
T3 sequence (P35414 whole entry): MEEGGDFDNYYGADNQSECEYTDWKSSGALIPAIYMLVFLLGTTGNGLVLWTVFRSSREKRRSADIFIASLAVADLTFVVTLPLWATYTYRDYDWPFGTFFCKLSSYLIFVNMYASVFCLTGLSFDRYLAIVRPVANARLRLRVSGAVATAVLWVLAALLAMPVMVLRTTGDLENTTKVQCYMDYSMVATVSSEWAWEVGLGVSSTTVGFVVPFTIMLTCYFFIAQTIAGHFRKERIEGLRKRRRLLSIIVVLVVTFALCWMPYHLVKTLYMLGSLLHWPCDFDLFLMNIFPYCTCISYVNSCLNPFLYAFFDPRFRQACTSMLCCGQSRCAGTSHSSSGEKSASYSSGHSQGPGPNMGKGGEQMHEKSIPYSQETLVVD

Plasma kallikrein [5] = molecular target: T1, Plasma kallikrein; experiment: Substrate activity at recombinant human C-terminal His6-tagged KLKB1 (Pro19 to Ser262 residues) expressed in mammalian expression system assessed as Kcat measured after 30 to 60 mins by LC-MS analysis; type: ADME
[6] = molecular target: T2, Plasma kallikrein (KLKB1); experiment: Substrate activity at recombinant human C-terminal His6-tagged KLKB1 (Pro19 to Ser262 residues) expressed in mammalian expression system assessed as Km measured after 30 to 60 mins by LC-MS analysis; type: ADME
Plasma kallikrein [7] = molecular target: T1, Plasma kallikrein; experiment: Substrate activity at human KLKB1 assessed as ratio of Kcat to Km by spectrofluorimetric method; type: ADME
Plasma kallikrein [8] = molecular target: T1, Plasma kallikrein; experiment: as §1; type: ADME
Plasma kallikrein [9] = molecular target: T1, Plasma kallikrein; experiment: Substrate activity at recombinant human C-terminal His6-tagged KLKB1 (Pro19 to Ser262 residues) expressed in mammalian expression system assessed as Vmax measured after 30 to 60 mins by LC-MS analysis; type: ADME
Apelin receptor [10] = molecular target: T4, Apelin receptor (Rattus norvegicus, UniProt Q9JHG3); experiment: Displacement of [125I]-(Glp1,Nle11,[…])apelin-13 from recombinant rat EGFP-fused apelin receptor expressed in CHO cell membrane measured after 3 hrs; type: cell membranes
T4 sequence (Q9JHG3 whole entry): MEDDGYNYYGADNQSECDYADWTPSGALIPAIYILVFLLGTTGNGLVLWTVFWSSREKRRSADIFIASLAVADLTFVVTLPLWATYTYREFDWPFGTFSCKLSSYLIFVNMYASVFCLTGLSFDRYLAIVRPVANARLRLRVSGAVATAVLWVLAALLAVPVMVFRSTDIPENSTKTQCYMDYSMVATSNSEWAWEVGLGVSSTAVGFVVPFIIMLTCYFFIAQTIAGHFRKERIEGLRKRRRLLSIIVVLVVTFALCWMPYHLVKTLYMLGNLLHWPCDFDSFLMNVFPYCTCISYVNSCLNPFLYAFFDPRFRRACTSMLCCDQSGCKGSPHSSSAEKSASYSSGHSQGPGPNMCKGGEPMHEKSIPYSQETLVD

| Time (Neprilysin) [h] | half-life (Neprilysin (NEP)) [h] | Time (Plasma kallikrein [1]) [h] | half-life [2] [h] | half-life [3] [h] | Kcat (Plasma kallikrein [5]) [s⁻¹] | Km [6] [µM] | Kcat/Km (Plasma kallikrein [7]) [×10⁴ /Ms] | t1/2 (Plasma kallikrein [8]) [h] | Vmax (Plasma kallikrein [9]) [µmol/min] | IC50 (Apelin receptor [10]) [nM] | Compound | Activity (Mus musculus) [mmHg] | EC50 (Apelin receptor [4]) [nM] |
| --- | --- | --- | --- | --- | --- | --- | --- | --- | --- | --- | --- | --- | --- |
| 1 | 1 | 1 | 4.5 | 1.5 | – | – | – | – | – | – | CCCCCCCCCCCCCCCC(=O)N[C@@H](CCCCN)C(=O)N[C@@H](Cc1ccccc1)C(=O)N[C@@H](CCCNC(=N)N)C(=O)N[C@@H](CCCNC(=N)N)C(=O)N[C@@H](CCC(N)=O)C(=O)N[C@@H](CCCNC(=N)N)C(=O)N1CCC[C@H]1C(=O)N[C@@H](CCCNC(=N)N)C(=O)N[C@@H](CC(C)C)C(=O)N[C@@H](CO)C(=O)N[C@@H](Cc1cnc[nH]1)C(=O)N[C@@H](CCCCN)C(=O)NCC(=O)N1CCC[C@H]1C(=O)N[C@@H](CCCC)C(=O)NC(C)(C)C(=O)N[C@@H](Cc1ccc(Br)cc1)C(=O)O (Palmitoyl-KFRRQRPRLSHKGP[Nle][Aib][Phe(4-Br)]-OH) | -41 | – |
| > 36 | – | – | – | – | – | – | – | – | – | – | CCCC[C@H](NC(=O)[C@@H]1CCCN1C(=O)CNC(=O)[C@H](CCCCN)NC(=O)[C@H](Cc1cnc[nH]1)NC(=O)[C@H](CO)NC(=O)[C@H](CC(C)C)NC(=O)[C@H](CCCNC(=N)N)NC(=O)[C@@H]1CCCN1C(=O)[C@H](CCCNC(=N)N)NC(=O)[C@H](CCC(N)=O)NC(=O)[C@@H](N)CCCNC(=N)N)C(=O)NC(C)(C)C(=O)N[C@@H](Cc1ccc(Br)cc1)C(=O)O (H-RQRPRLSHKGP[Nle][Aib][Phe(4-Br)]-OH) | 3 | – |
| > 36 | 2.1 | 2 | 20.5 | > 30 | – | – | – | – | – | – | CCCCCCCCCCCCCCCC(=O)N[C@@H](CCCCN)C(=O)N[C@@H](Cc1ccccc1)C(=O)N[C@@H](CCCNC(=N)N)C(=O)N[C@@H](CCCNC(=N)N)C(=O)N[C@@H](CCC(N)=O)C(=O)N[C@@H](CCCNC(=N)N)C(=O)N1CCC[C@H]1C(=O)N[C@@H](CCCNC(=N)N)C(=O)N(C)[C@@H](CC(C)C)C(=O)N[C@@H](CO)C(=O)N[C@@H](Cc1cnc[nH]1)C(=O)N[C@@H](CCCCN)C(=O)NCC(=O)N1CCC[C@H]1C(=O)N[C@@H](CCCC)C(=O)NC(C)(C)C(=O)N[C@@H](Cc1ccc(Br)cc1)C(=O)O (Palmitoyl-KFRRQRPR[NMeL]SHKGP[Nle][Aib][Phe(4-Br)]-OH) | -12 | – |
| – | – | – | – | – | – | – | – | – | – | – | CCCC[C@H](NC(=O)[C@@H]1CCCN1C(=O)CNC(=O)[C@H](CCCCN)NC(=O)[C@H](Cc1cnc[nH]1)NC(=O)[C@H](CO)NC(=O)[C@H](CC(C)C)N(C)C(=O)[C@H](CCCNC(=N)N)NC(=O)[C@@H]1CCCN1C(=O)[C@H](CCCNC(=N)N)NC(=O)[C@H](CCC(N)=O)NC(=O)[C@@H](N)CCCNC(=N)N)C(=O)NC(C)(C)C(=O)N[C@@H](Cc1ccc(Br)cc1)C(=O)O (H-RQRPR[NMeL]SHKGP[Nle][Aib][Phe(4-Br)]-OH) | -15 | – |
| – | 0.9 | – | 1.2 | > 30 | – | – | – | – | – | – | CCCC[C@H](NC(=O)[C@@H]1CCCN1C(=O)CNC(=O)[C@H](CCCCN)NC(=O)[C@H](Cc1c[nH]cn1)NC(=O)[C@H](CO)NC(=O)[C@H](CC(C)C)N(C)C(=O)[C@H](CCCNC(=N)N)NC(=O)[C@@H]1CCCN1C(=O)[C@H](CCCNC(=N)N)NC(=O)[C@H](CCC(N)=O)NC(=O)[C@H](CCCNC(=N)N)NC(=O)[C@H](CCCNC(=N)N)NC(=O)[C@H](Cc1ccccc1)NC(=O)[C@@H](N)CCCCN)C(=O)NC(C)(C)C(=O)N[C@@H](Cc1ccc(Br)cc1)C(=O)O (H-KFRRQRPR[NMeL]SHKGP[Nle][Aib][Phe(4-Br)]-OH) | -36 | 4.9 |
| – | – | – | – | – | 0.001 | 2.4 | 0.4 | – | – | – | H-SLSSMTRVVGG-OH | – | – |
| < 1 | 0.7 | < 0.5 | 0.3 | – | – | – | – | 1 | – | – | CCCC[C@H](NC(=O)[C@@H]1CCCN1C(=O)CNC(=O)[C@H](CCCCN)NC(=O)[C@H](Cc1c[nH]cn1)NC(=O)[C@H](CO)NC(=O)[C@H](CC(C)C)NC(=O)[C@H](CCCNC(=N)N)NC(=O)[C@@H]1CCCN1C(=O)[C@H](CCCNC(=N)N)NC(=O)[C@H](CCC(N)=O)NC(=O)[C@H](CCCNC(=N)N)NC(=O)[C@H](CCCNC(=N)N)NC(=O)[C@H](Cc1ccccc1)NC(=O)[C@@H](N)CCCCN)C(=O)NC(C)(C)C(=O)N[C@@H](Cc1ccc(Br)cc1)C(=O)O (H-KFRRQRPRLSHKGP[Nle][Aib][Phe(4-Br)]-OH) | -32 | 4.1 |
| < 0.5 | 0.4 | < 0.5 | 0.02 | 0.4 | – | – | – | – | 2.947 | 0.025 | CSCC[C@H](NC(=O)[C@@H]1CCCN1C(=O)CNC(=O)[C@H](CCCCN)NC(=O)[C@H](Cc1cnc[nH]1)NC(=O)[C@H](CO)NC(=O)[C@H](CC(C)C)NC(=O)[C@H](CCCNC(=N)N)NC(=O)[C@@H]1CCCN1C(=O)[C@H](CCCNC(=N)N)NC(=O)[C@H](CCC(N)=O)NC(=O)[C@H](CCCNC(=N)N)NC(=O)[C@H](CCCNC(=N)N)NC(=O)[C@H](Cc1ccccc1)NC(=O)[C@@H](N)CCCCN)C(=O)N1CCC[C@H]1C(=O)N[C@@H](Cc1ccccc1)C(=O)O | -20 | – |

| Compound | Time (Neprilysin) [h] | half-life (Neprilysin (NEP)) [h] | Time (Plasma kallikrein [1]) [h] | half-life [2] [h] | half-life [3] [h] | Kcat (Plasma kallikrein [5]) [s⁻¹] | Km [6] [µM] | Kcat/Km (Plasma kallikrein [7]) [×10⁴ /Ms] | t1/2 (Plasma kallikrein [8]) [h] | Vmax (Plasma kallikrein [9]) [µmol/min] | IC50 (Apelin receptor [10]) [nM] | Activity (Mus musculus) [mmHg] | EC50 (Apelin receptor [4]) [nM] |
| --- | --- | --- | --- | --- | --- | --- | --- | --- | --- | --- | --- | --- | --- |
| CCCC[C@H](NC(=O)[C@@H]1CCCN1C(=O)CNC(=O)[C@H](CCCCN)NC(=O)[C@H](Cc1cnc[nH]1)NC(=O)[C@H](CO)NC(=O)[C@H](CC(C)C)N(C)C(=O)[C@H](CCCNC(=N)N)NC(=O)[C@@H]1CCCN1C(=O)[C@H](CCCNC(=N)N)NC(=O)[C@H](CCC(N)=O)NC(=O)[C@H](CCCNC(=N)N)NC(=O)[C@H](CCCNC(=N)N)NC(=O)[C@H](Cc1ccccc1)NC(=O)[C@H](CCCCN)NC(=O)CCOCCOCCOCCOCCOCCOCCNC(=O)OCC1c2ccccc2-c2ccccc21)C(=O)NC(C)(C)C(=O)N[C@@H](Cc1ccc(Br)cc1)C(=O)O ({Fmoc-PEG6}-KFRRQRPR[NMeL]SHKGP[Nle][Aib][Phe(4-Br)]-OH) | > 36 | – | 2 | 27 | > 30 | – | – | – | – | – | – | -53 | 2.5 |
| CCCC[C@H](NC(=O)[C@@H]1CCCN1C(=O)CNC(=O)[C@H](CCCCN)NC(=O)[C@H](Cc1cnc[nH]1)NC(=O)[C@H](CO)NC(=O)[C@H](CC(C)C)NC(=O)[C@H](CCCNC(=N)N)NC(=O)[C@@H]1CCCN1C(=O)[C@H](CCCNC(=N)N)NC(=O)[C@H](CCC(N)=O)NC(=O)[C@H](CCCNC(=N)N)NC(=O)[C@H](CCCNC(=N)N)NC(=O)[C@H](Cc1ccccc1)NC(=O)[C@H](CCCCN)NC(=O)CCOCCOCCOCCOCCOCCOCCNC(=O)OCC1c2ccccc2-c2ccccc21)C(=O)NC(C)(C)C(=O)N[C@@H](Cc1ccc(Br)cc1)C(=O)O ({Fmoc-PEG6}-KFRRQRPRLSHKGP[Nle][Aib][Phe(4-Br)]-OH) | 12 | – | 1 | 18 | > 30 | – | – | – | – | – | – | -48 | 6.3 |
